Reference: PMC7811140 (iScience, 2020)
Entries after “also recorded” stand apart in the source; their conditions may differ.

Key:
KDM4B [1] = target: T1, KDM4B (Homo sapiens, UniProt O94953); test: biochemical; conditions: for KDM4B inhibitory activity (in words): Figure S2; for inhibition at 15 µM: read-out: %Inhibition of KDM4B; for %Inhibition of KDM4B: at 15 μM, screening
T1 sequence (O94953 1-348): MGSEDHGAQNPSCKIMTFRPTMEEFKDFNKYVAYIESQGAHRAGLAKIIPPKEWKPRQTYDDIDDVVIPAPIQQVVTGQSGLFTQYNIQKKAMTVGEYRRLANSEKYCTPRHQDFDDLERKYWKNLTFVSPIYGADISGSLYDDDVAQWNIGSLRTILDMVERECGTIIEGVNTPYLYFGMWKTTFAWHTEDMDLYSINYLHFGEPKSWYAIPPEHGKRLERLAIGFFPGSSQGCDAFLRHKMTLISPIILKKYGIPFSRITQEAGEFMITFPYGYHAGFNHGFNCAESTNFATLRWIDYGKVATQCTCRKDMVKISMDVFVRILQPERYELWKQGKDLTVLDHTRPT

PAX3-FOXO1 = test: Western blot of PAX3-FOXO1 in Rh30 cells; assay type: cell-based; conditions: 24 hr
aRMS xenograft = conditions: ref Kang et al., 2012; Lock et al., 2013; cited from earlier work
eRMS xenograft = conditions: ref Kang et al., 2012; Lock et al., 2013; cited from earlier work
Rh30 cells = test: Crystal violet staining proliferation assay; assay type: cell-based; conditions: 5 days, at the concentrations that hit the targets
KDM4B [2] = target: T2, KDM4B (Homo sapiens, UniProt O94953); test: Western blot of histone marks in 293T cells expressing KDM4B; assay type: cell-based; conditions: treated 24 hours
T2 sequence (O94953 1-1096): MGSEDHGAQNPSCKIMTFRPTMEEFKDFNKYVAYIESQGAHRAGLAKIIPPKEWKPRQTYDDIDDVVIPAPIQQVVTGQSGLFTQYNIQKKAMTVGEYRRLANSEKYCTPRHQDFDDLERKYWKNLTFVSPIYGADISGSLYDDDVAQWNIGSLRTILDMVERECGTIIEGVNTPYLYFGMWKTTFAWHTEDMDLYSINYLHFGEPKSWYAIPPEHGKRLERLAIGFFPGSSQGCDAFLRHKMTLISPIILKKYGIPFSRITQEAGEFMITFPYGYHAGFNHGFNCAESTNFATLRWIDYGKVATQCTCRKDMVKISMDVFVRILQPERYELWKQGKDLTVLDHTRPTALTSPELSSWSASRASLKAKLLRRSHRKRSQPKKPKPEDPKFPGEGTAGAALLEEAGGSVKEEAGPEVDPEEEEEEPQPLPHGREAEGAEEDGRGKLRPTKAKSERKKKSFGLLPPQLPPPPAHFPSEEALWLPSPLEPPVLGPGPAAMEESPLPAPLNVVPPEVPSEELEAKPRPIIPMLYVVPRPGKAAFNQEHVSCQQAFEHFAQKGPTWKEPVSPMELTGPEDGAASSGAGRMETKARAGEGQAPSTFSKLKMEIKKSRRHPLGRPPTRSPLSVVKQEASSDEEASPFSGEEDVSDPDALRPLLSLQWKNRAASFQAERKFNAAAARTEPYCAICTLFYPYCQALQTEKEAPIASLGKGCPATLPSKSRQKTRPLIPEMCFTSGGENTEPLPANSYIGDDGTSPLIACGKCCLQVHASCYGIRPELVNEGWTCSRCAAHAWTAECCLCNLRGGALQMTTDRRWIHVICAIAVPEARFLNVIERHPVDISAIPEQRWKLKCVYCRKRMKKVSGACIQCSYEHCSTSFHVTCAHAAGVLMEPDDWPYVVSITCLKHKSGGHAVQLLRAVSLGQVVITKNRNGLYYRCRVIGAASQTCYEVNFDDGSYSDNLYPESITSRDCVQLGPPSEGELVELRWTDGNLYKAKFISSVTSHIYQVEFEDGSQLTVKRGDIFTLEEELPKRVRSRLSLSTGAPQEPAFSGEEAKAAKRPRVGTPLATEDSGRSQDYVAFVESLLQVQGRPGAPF

KDM4C = target: T3, KDM4C (Homo sapiens, UniProt Q9H3R0); test: ALPHA Screen demethylation assay; assay type: biochemical; conditions: IC50 (μM) KDM4C
T3 sequence (Q9H3R0 1-1056): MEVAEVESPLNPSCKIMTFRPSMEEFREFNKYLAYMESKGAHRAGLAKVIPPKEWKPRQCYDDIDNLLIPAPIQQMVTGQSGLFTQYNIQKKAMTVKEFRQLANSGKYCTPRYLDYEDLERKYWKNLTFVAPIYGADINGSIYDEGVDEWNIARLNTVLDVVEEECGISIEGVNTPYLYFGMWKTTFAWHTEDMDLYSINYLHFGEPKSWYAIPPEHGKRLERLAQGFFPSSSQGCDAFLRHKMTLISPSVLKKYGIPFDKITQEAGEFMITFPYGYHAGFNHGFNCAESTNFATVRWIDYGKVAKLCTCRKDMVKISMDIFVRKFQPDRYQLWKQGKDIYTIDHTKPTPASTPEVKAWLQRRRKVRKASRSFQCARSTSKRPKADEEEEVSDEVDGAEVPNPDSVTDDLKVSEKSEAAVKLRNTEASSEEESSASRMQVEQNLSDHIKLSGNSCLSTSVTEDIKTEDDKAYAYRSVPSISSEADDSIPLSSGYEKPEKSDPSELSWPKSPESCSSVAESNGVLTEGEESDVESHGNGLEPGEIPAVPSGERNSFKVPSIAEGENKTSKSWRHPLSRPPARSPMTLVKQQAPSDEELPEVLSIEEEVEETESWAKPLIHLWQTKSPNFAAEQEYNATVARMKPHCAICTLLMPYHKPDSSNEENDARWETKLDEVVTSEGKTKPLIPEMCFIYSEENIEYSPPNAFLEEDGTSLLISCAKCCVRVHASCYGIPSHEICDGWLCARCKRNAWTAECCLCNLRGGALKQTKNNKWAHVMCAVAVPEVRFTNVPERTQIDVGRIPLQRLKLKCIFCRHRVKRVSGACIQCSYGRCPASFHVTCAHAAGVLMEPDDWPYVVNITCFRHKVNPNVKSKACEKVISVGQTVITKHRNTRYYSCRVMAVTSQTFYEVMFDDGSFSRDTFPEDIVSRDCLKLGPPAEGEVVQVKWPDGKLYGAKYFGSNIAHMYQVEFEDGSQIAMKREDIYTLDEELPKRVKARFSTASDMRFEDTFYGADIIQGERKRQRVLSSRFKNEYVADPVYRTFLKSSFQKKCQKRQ

KDM5A = KDM5A (Homo sapiens, UniProt P29375); test: ALPHA Screen demethylation assay; assay type: biochemical; conditions: IC50 (μM) KDM5A
Chain of KDM5A (P29375 whole entry): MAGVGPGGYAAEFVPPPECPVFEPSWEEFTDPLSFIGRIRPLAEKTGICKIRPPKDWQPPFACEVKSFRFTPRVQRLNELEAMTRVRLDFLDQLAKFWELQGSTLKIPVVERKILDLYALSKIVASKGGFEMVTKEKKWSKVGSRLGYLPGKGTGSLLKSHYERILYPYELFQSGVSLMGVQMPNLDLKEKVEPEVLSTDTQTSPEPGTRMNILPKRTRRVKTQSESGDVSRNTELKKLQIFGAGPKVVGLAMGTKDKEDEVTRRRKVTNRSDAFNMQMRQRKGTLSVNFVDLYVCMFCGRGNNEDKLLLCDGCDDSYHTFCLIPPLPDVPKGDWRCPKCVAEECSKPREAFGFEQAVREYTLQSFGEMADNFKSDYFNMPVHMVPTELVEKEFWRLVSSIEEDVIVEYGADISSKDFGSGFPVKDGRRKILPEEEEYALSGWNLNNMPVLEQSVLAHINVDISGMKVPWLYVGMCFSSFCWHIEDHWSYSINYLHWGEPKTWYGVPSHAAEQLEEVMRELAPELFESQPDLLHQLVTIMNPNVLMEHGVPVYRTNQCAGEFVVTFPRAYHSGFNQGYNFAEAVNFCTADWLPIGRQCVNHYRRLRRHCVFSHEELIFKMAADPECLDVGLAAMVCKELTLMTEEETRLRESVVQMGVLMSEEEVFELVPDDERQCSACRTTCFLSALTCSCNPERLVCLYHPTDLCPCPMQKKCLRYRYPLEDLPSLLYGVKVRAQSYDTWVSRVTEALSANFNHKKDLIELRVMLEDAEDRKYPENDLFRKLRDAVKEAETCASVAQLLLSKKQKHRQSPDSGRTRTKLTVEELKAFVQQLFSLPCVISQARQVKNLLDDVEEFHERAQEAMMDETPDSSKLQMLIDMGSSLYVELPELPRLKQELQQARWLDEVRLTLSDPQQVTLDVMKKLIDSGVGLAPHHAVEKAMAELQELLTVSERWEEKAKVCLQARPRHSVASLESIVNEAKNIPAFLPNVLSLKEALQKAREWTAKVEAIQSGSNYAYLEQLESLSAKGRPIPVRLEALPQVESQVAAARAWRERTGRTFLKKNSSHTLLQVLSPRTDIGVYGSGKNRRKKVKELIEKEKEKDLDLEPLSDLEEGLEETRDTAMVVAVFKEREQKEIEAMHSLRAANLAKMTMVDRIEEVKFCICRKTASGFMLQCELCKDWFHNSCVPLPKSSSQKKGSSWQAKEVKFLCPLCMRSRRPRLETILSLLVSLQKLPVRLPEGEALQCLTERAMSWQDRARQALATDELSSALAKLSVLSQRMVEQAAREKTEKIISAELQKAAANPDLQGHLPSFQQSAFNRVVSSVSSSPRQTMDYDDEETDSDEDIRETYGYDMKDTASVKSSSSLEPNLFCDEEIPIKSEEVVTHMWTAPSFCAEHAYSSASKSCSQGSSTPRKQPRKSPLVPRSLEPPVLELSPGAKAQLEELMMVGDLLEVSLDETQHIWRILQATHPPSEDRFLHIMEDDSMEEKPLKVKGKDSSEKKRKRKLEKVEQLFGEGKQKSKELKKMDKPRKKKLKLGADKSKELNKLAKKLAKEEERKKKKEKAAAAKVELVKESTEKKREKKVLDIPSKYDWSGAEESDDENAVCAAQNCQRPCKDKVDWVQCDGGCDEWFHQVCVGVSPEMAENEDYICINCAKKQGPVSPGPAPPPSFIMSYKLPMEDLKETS

[3] = system: KDM4 substrates H3K9me3 and H3K36me3; test: Western blot of H3K9me3 and H3K36me3 in Rh30 cells; assay type: cell-based; conditions: 24 hr
[4] = system: H3K9me3 and H3K36me3 peaks; test: ChIP-seq of H3K9me3 and H3K36me3 in Rh30 cells; assay type: cell-based, human; conditions: 1μM, 24 hr
KDM4B [5] = target: T2, KDM4B; test: Western blot of histone methyl marks in U2OS cells expressing KDM4B; conditions: 1uM, not on H3K4me3

Compound: CC(C)c1cc(C(=O)N2Cc3ccc(CN4CCN(C)CC4)cc3C2)c(O)cc1O [AT13387]
- KDM4B inhibitory activity (in words) (KDM4B [1]): minimal effect on KDM4B activity; also recorded: did not inhibit KDM4B activity
- inhibition at 15 µM (KDM4B [1]): < 15%
- PAX3-FOXO1 expression (protein) (PAX3-FOXO1): reduced the expression of PAX3-FOXO1
- aRMS xenograft growth (aRMS xenograft): no effect
- eRMS xenograft growth (eRMS xenograft): no effect on either aRMS or eRMS xenograft growth

Compound: CCOC(=O)CCNc1cc(N2CCc3ccccc3CC2)nc(-c2ccccn2)n1 [GSK-J4]
- anti-proliferative effect (Rh30 cells): no anti-proliferative effect

Compound: CC(C)c1cc(-c2n[nH]c(=O)n2-c2ccc3c(ccn3C)c2)c(O)cc1O [Ganetespib]
- KDM4B inhibitory activity (in words) (KDM4B [1]): did not inhibit KDM4B activity
- inhibition at 15 µM (KDM4B [1]): < 15%
- aRMS xenograft growth (aRMS xenograft): no effect
- eRMS xenograft growth (eRMS xenograft): no effect on either aRMS or eRMS xenograft growth

Compound: CCOC(=O)c1ccnc(CNCC(=O)N(CC)CCN(C)C)c1 [KDM5-C70]
- anti-proliferative effect (Rh30 cells): no anti-proliferative effect

Compound: CCc1c(O)cc(O)c(C(=O)c2ccc(OCCN3CCOCC3)c(OC)c2)c1CC(=O)N(CCOC)CCOC.Cl [KW2478]
- %Inhibition of KDM4B (KDM4B [1]): < 15%

Compound: CCNC(=O)c1noc(-c2cc(C(C)C)c(O)cc2O)c1-c1ccc(CN2CCOCC2)cc1 [NVP-AUY922]
- inhibition at 15 µM (KDM4B [1]): < 15%

Compound: CC1(C)CC(=O)c2c(C(F)(F)F)nn(-c3ccc(C(N)=O)c(N[C@H]4CC[C@H](OC(=O)CN)CC4)c3)c2C1 [SNX-5422]
- inhibition at 15 µM (KDM4B [1]): < 15%

Compound: CN(NC(=O)CC(=O)NN(C)C(=S)c1ccccc1)C(=S)c1ccccc1 [STA-4783]
- inhibition at 15 µM (KDM4B [1]): < 15%

Compound: CC[C@@H](C)Nc1cc(C(=O)N[C@H]2C[C@H]3CC[C@@H](C2)N3c2ccc(C(=O)C3CC3)cn2)c(C)cc1C(N)=O [XL888]
- %Inhibition of KDM4B (KDM4B [1]): < 15%

Compound: Cc1cc(C2CCCCC2)n(O)c(=O)c1 [ciclopirox]
- KDM4B activity in demethylating H3K9me3 (KDM4B [2]): greatly inhibited KDM4B activity

Compound: COC1=C2C[C@@H](C)C[C@H](OC)[C@H](O)[C@@H](C)/C=C(\C)[C@H](OC(N)=O)[C@@H](OC)/C=C\C=C(/C)C(=O)NC(=CC1=O)C2=O [geldanamycin]
- IC50 (KDM4C): < 1 µM
- IC50 (KDM5A): < 1 µM
- KDM4B activity in demethylating H3K9me3 (KDM4B [2]): greatly inhibited KDM4B activity
- PAX3-FOXO1 expression (protein) (PAX3-FOXO1): reduced
- H3K9me3 and H3K36me3 levels [3]: induced an increase of H3K9me3 and H3K36me3
- H3K36me3 peaks decreased [4]: 213 peaks
- H3K36me3 peaks increased [4]: 1430 peaks
- peaks of H3K9me3 induced ([4]; p < 0.05, logFC = 0.5): Four thousand four hundred six
- KDM4B catalytic activity on its H3K9me3 and H3K36me3 substrates (KDM4B [5]): blocked KDM4B catalytic activity
